For assay [1], the target named is T1, carnitine acetyltransferase (CAT) (Columba livia, UniProt P52826).
T1 construct: an enzyme isolated from pigeon breast muscle (Sigma Aldrich) was used in the form of an ammonium sulfate suspension; tissue Sigma-Aldrich; host or cells: pigeon breast muscle
T1 sequence (P52826 31-627): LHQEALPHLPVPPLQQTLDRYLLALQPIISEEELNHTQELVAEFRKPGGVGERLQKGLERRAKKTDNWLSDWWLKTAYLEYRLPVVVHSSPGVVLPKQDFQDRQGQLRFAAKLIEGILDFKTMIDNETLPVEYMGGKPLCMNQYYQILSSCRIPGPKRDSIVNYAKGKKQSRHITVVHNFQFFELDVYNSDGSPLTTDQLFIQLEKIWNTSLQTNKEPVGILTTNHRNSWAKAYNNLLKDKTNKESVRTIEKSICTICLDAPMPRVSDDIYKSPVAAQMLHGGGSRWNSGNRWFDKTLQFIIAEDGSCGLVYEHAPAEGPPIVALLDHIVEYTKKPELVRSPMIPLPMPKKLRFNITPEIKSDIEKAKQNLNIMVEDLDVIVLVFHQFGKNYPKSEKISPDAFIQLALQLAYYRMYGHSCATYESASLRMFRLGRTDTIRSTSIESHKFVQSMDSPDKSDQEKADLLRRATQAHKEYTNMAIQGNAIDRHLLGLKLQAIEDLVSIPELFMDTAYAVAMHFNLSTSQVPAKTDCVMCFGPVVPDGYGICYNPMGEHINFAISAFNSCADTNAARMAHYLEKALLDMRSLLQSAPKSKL
Briefly: Initial screening of CAT inhibition, spectrophotometric kinetic method with Ellman's reagent. The assay is classed as biochemical. The following applies: read in first minute of reaction. As to the method:
To assess the inhibitory potential of the synthesized compounds against CAT, we conducted an initial screening at three concentrations: 100 μM, 250 μM and 1000 μM. Readings were taken within the first minute after the reaction started, and inhibition was measured using a kinetic method, as described in the Experimental section. The results are summarized and presented as a percentage of inhibition in Figure 2 and Figure 3 for the 3-alkyl-3,4-dihydroisocoumarin-4-carboxylic acids and the 3-alkyl/3-aryl-6,7-dimethoxy-3,4-dihydroisocoumarin-4-carboxylic acids, respectively.
To determine the effect of the synthesized compounds on CAT activity, a modified procedure for spectrophotometric determination of L-carnitine using Ellman’s reagent was used. In all analyses, an enzyme isolated from pigeon breast muscle (Sigma Aldrich) was used in the form of an ammonium sulfate suspension with an activity of 71 U/mg protein. One unit of enzyme catalyzes the conversion of 1 μmol of L-carnitine and acetyl-CoA into acetylcarnitine and free CoA in 1 min. Phosphate buffer (0.5 M, pH = 7.6) is used to dilute the enzyme to obtain a stock solution with a concentration of 24 U/mL.
Ellman’s reagent was prepared immediately before each measurement by dissolving 25 mg DTNB in 5 mL 1 mM solution of Na2EDTA in phosphate buffer (0.5 M, pH = 7.6). Stock solutions of acetyl-CoA and L-carnitine were prepared in deionized water with concentrations of 348.0 μM and 303.4, respectively. An aqueous solution of tris (hydroxymethyl) aminomethane (TRIS) with pH = 7.6 and 1 M concentration was used as a buffer solution. Test compounds were dissolved and diluted in phosphate buffer (0.5 M, pH = 7.6) to the desired stock concentration. The working volume of the reaction is 300 μL and contains 50 μL of each of the six components (DTNB, TRIS, acetyl-CoA, CAT, L-carnitine and inhibitor) solutions with concentrations as described below. In the control samples, the inhibitor solution is replaced with phosphate buffer (0.5 M, pH = 7.6). The incubation time for all components without L-carnitine is 5 min at 37 °C. The reaction was started by adding L-carnitine, and its progress was monitored by reading the change in absorbance at 405 nm in kinetic mode. The concentrations of the components in the final volume were, c (DTNB) = 114 μM, c (TRIS) = 100 mM, c (acetyl-CoA) = 58 μM, c (CAT) = 4 U/mL and c (L-carnitine) = 50.56 μM. The time for reading the results was the first minute after starting the reaction.
(In general: Ellman's reagent forms a yellow product with free thiols.)

In assay [2] the target is T1, carnitine acetyltransferase (CAT). Description: Kinetic studies of CAT inhibition mechanism (Michaelis-Menten / Lineweaver-Burk, SigmaPlot regression). The following applies: for Type / mechanism of inhibition: model chosen by R^2, AIC and Sy,x. It counts as biochemical, pigeon. The source says: These experiments allowed us to identify the inhibition mechanism and calculate Km, Vmax and Ki. We used SigmaPlot version 12.5 (Systat Software Inc., San Jose, CA, USA), which includes modules for regression analysis and various inhibition models. This software also lets us choose the mechanism of inhibition with the highest correlation factors (coefficient of determination (R^2) and Akaike information coefficient (AIC)) and the lowest Sy,x value. The numerical results are summarized in Table 1, while the corresponding Lineweaver–Burk and Michaelis–Menten kinetic plots are available in the Supplementary Materials.
(Michaelis-Menten) and 1/v0 vs. […] (Lainweaver-Burke) relationships. For this purpose, five solutions with different concentrations of the inhibitor and five solutions with different concentrations of L-carnitine were prepared. […] The time for reading the results is every six seconds for three minutes after the start of the reaction, which corresponds to the end of the linear interval. The initial velocity v0 was determined using the method proposed by Baici, by calculating the cut-off of the v vs. t (time) dependence for the linear interval of each of the reactions. Graphical dependencies are provided in the Supplementary Materials (Figures S1–S3).
Figure S2. Graphs representing the dependence of the initial velocity (v 0) on the concentration of the substrate [S], according to the model of Michaelis -Menten – left, and Lineweaver-Burk – right, for reversible a) mixed, b) non-competitive, c) uncompetitive and d) competitive inhibition. The concentration of the inhibitor - compound cis-8 are 0 μM, 25.6 μM, 51.2 μM and 68.3 μM, concentration of L-carnitine are 94 μM, 180 μM, 370 μM, 750 μM and 1500 μM.
Figure S3. Graphs representing the dependence of the initial velocity (v 0) on the concentration of […]
for reversible a) mixed, b) uncompetitive, c) non-competitive and d) competitive inhibition. The concentration of the inhibitor - compound trans-8 are 0 μM, 26.0 μM, 52.0 and 69.4 μM,

Assay [3] deals with carnitine acetyltransferase (CAT). The arrangement: method as in PMID 39942839. The following applies: positive control; ref [21]; cited from earlier work.
Setting [4] is: fit to competitive inhibition model.
Setting [5] is: fit to non-competitive inhibition model.
Where [6] appears, read: fit to uncompetitive inhibition model.

Structures are written as SMILES. “Also recorded” adds a separate entry of the source.

As a reminder, the inhibition is the change of the read-out against control, counted positive when it falls. As usually defined, the Ki is the dissociation constant of the complex between target and ligand, obtained from inhibition or displacement. High values mean lower affinity, low ones higher affinity. In general, IC50 refers to the concentration needed to halve the response being measured.

Regarding `CCCCCCCCCCC1OC(=O)c2cc(OC)c(OC)cc2C1C(=O)O` (racemic) [cis-8, Cis- and Trans-(±)-3-Decyl-3,4-Dihydro-6,7-Dimethoxy-1-Oxo-1H-Isochromene-4-Carboxylic Acids], the inhibition at 100 µM in assay [1] (read-out: CAT inhibition (%), inhibitor 100 μM) came out at 44%. Moreover, the inhibition at 250 µM in assay [1] (read-out: CAT inhibition (%), inhibitor 250 μM) was determined as 71%. Moreover, the inhibition at 1000 µM in assay [1] (read-out: CAT inhibition (%), inhibitor 1000 μM) came out at 85%. Moreover, the AIC is on record as −1519.782 in assay [2] (setting [4]), −1562.764 in assay [2] (fit to mixed inhibition model), −1565.380 in assay [2] (setting [5]) and −1550.555 in assay [2] (setting [6]). For the same compound, the “Sy,x” value is listed as 5.211 × 10^−9 in assay [2] (setting [4]), 2.987 × 10^−9 in assay [2] (fit to mixed inhibition model), 2.947 × 10^−9 in assay [2] (setting [5]) and 3.547 × 10^−9 in assay [2] (setting [6]). Further, the α in assay [2] (mixed inhibition model) was found to be 0.97; in assay [2] (non-competitive inhibition model), 1. The compound further had a Ki in assay [2] (mixed-type inhibition model, L-carnitine varied) of 0.13 mM. Moreover, the “Type / mechanism of inhibition” value in assay [2] was “mixed-type inhibitors; also recorded: allosteric inhibitor”; in assay [2] (listed as cis-3-decyl-6,7-dimethoxy-3,4-dihydroisocoumarin-4-carboxylic acid), “mixed inhibition”.

In the case of `C[N+](C)(C)NCCC(=O)[O-]` [Meldonium], in assay [3], the half-maximal inhibitory concentration (IC50) was 11.4 mM.

The values are drawn from publication PMC12348882, “Rational Design, Synthesis and In Vitro Activity of Diastereomeric Cis-/Trans-3-Substituted-3,4-Dihydroisocoumarin-4-Carboxylic Acids as Potential Carnitine Acetyltransferase Inhibitors” (Molecules, 2025).
